# In US11753407B2, “Compounds for treating spinal muscular atrophy” (PTC Therapeutics, Inc., priority 2012, dated 2023):
# Columns and labels:
# [1] = system: SMN2 minigene mRNA (SMN2-A minigene) in HEK293H cells; assay: SMN2 minigene mRNA splicing RT-qPCR assay in cultured cells; format: cell-based, human; details: Homo sapiens, HEK293-H; concentration increasing full length SMN2 mRNA 1.5-fold relative to vehicle-treated cells; HEK293H cells with SMN2-A minigene, 24 hours, 7-point concentration data; read-out: EC1.5x for production of full length SMN2 mRNA
# Method in brief: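 EC1.5× = concentration raising full-length SMN2 minigene mRNA 1.5-fold over vehicle, from 7-point curves in duplicate. Stably transfected HEK293H cells exposed 24 h at 37 °C; lysates assayed by multiplex RT-qPCR, minigene FL signal normalized to GAPDH via modified ΔΔCt.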
# [2] = system: Smn protein in SMA patient fibroblast cells (GM03813); assay: Smn protein assay in cultured cells (SMN HTRF); format: cell-based, human; details: SMA patient fibroblast cells, 48 hours; for EC1.5x for Smn protein expression: 7-point concentration curve, SMN HTRF, concentration producing 1.5 times Smn protein vs DMSO vehicle control; for maximum fold (Fold) increase of Smn protein: 7-point concentration data, fold relative to vehicle control
# Method in brief: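 Smn protein quantified by HTRF with anti-SMN d2/kryptate pair, 665/620 nm ratio blank-corrected, in RIPA lysates of GM03813 fibroblasts after 48 h compound exposure (7 concentrations, 3.16-fold steps, triplicates). Values: concentration producing 1.5× vehicle Smn level, and maximal fold increase.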
melting point [°C],Structure (SMILES),EC (1.5-fold increase) [1] [µM],EC1.5x for Smn protein expression [2],maximum fold (Fold) increase of Smn protein [2]
156 to 158,"CN[C@H]1CC[C@@H](c2ccc3nc(-c4ccc(OC)c(OC)c4)cc(=O)n3c2)CC1 [Compound 405, 2-(3,4-dimethoxyphenyl)-7-[cis-4-(methylamino)cyclohexyl]-4H-pyrido[1,2-a]pyrimidin-4-one]",0.1 to 0.3,*** (an EC1.5× between >0.3 μM and ≤1 μM is indicated by three stars (***)),**** (a fold increase between >1.5 and ≤1.65 is indicated by four stars (****))
126 to 129,"COc1ccc(-c2cc(=O)n3cc(C4CCCNC4)ccc3n2)cc1OC (stereo not shown) [Compound 406, 2-(3,4-dimethoxyphenyl)-7-(piperidin-3-yl)-4H-pyrido[1,2-a]pyrimidin-4-one]",0.3 to 1,* (An EC1.5× for Smn protein expression between >3 μM and ≤10 μM is indicated by one star (*)),*** (a fold increase between >1.35 and ≤1.5 is indicated by three stars (***))
255 to 258,"Cc1cn2cc(-c3ccc4nc(C5CCNCC5)cc(=O)n4c3)ccc2n1 [Compound 409, 7-(2-methylimidazo[1,2-a]pyridin-6-yl)-2-(piperidin-4-yl)-4H-pyrido[1,2-a]pyrimidin-4-one]",< 0.1,**** (an EC1.5x≤0.3 μM is indicated by four stars (****)),***** (a fold increase >1.65 is indicated by five stars (*****))
295 to 298,"Cc1cn2cc(-c3ccc4nc(C5CCNCC5)cc(=O)n4c3)cc(F)c2n1 [Compound 410, 7-(8-fluoro-2-methylimidazo[1,2-a]pyridin-6-yl)-2-(piperidin-4-yl)-4H-pyrido[1,2-a]pyrimidin-4-one]",< 0.1,**** (an EC1.5x≤0.3 μM is indicated by four stars (****)),***** (a fold increase >1.65 is indicated by five stars (*****))
254 to 258,"Cc1cn2cc(-c3cc(=O)n4cc(N5CCN(C6CC6)CC5)ccc4n3)cc(F)c2n1 [Compound 412, 7-(4-cyclopropylpiperazin-1-yl)-2-(8-fluoro-2-methylimidazo[1,2-a]pyridin-6-yl)-4H-pyrido[1,2-a]pyrimidin-4-one]",< 0.1,**** (an EC1.5x≤0.3 μM is indicated by four stars (****)),***** (a fold increase >1.65 is indicated by five stars (*****))
178 to 183,"COc1ccc(-c2cc(=O)n3cc(N4CCC(NC(C)C)CC4)cc(C)c3n2)cc1OC [Compound 416, 2-(3,4-dimethoxyphenyl)-9-methyl-7-[4-(propan-2-ylamino)piperidin-1-yl]-4H-pyrido[1,2-a]pyrimidin-4-one]",< 0.1,** (an EC1.5× between >1 μM and ≤3 μM is indicated by two stars (**)),*** (a fold increase between >1.35 and ≤1.5 is indicated by three stars (***))
183 to 189,"COc1ccc(-c2cc(=O)n3cc(N4CCN5CCC[C@H]5C4)cc(C)c3n2)cc1OC [Compound 417, 2-(3,4-dimethoxyphenyl)-7-[(8aS)-hexahydropyrrolo[1,2-a]pyrazin-2(1H)-yl]-9-methyl-4H-pyrido[1,2-a]pyrimidin-4-one]",0.1 to 0.3,** (an EC1.5× between >1 μM and ≤3 μM is indicated by two stars (**)),**** (a fold increase between >1.5 and ≤1.65 is indicated by four stars (****))
219 to 224,"COc1ccc(-c2cc(=O)n3cc(N4CCC(N5CCOCC5)CC4)cc(C)c3n2)cc1OC [Compound 419, 2-(3,4-dimethoxyphenyl)-9-methyl-7-[4-(morpholin-4-yl)piperidin-1-yl]-4H-pyrido[1,2-a]pyrimidin-4-one]",0.1 to 0.3,–,** (a fold increase between >1.2 and ≤1.35 is indicated by two stars (**))
202 to 204,"Cc1cn2nc(-c3cc(=O)n4cc(N5CCNCC5)ccc4n3)cc2cn1 [Compound 420, 2-(6-methylpyrazolo[1,5-a]pyrazin-2-yl)-7-(piperazin-1-yl)-4H-pyrido[1,2-a]pyrimidin-4-one]",< 0.1,**** (an EC1.5x≤0.3 μM is indicated by four stars (****)),**** (a fold increase between >1.5 and ≤1.65 is indicated by four stars (****))
222 to 224,"Cc1nc2ccc(-c3cc(=O)n4cc(C5CCNCC5)ccc4n3)cc2s1 [Compound 424, 2-(2-methyl-1,3-benzothiazol-6-yl)-7-(piperidin-4-yl)-4H-pyrido[1,2-a]pyrimidin-4-one]",< 0.1,**** (an EC1.5x≤0.3 μM is indicated by four stars (****)),***** (a fold increase >1.65 is indicated by five stars (*****))
215 to 218,"Cc1cn2nc(-c3cc(=O)n4cc(N5CCC(N6CCCC6)CC5)ccc4n3)cc2c(C)n1 [Compound 425, 2-(4,6-dimethylpyrazolo[1,5-a]pyrazin-2-yl)-7-[4-(pyrrolidin-1-yl)piperidin-1-yl]-4H-pyrido[1,2-a]pyrimidin-4-one]",< 0.1,**** (an EC1.5x≤0.3 μM is indicated by four stars (****)),***** (a fold increase >1.65 is indicated by five stars (*****))

Structure (SMILES),melting point [°C],EC (1.5-fold increase) [1] [µM],EC1.5x for Smn protein expression [2],maximum fold (Fold) increase of Smn protein [2]
"CCc1cc(C2=CCNCC2)cn2c(=O)cc(-c3ccc(OC)c(OC)c3)nc12 [Compound 408, 2-(3,4-dimethoxyphenyl)-9-ethyl-7-(1,2,3,6-tetrahydropyridin-4-yl)-4H-pyrido[1,2-a]pyrimidin-4-one]",171 to 177,< 0.1,–,** (a fold increase between >1.2 and ≤1.35 is indicated by two stars (**))
"Cc1cn2cc(-c3ccc4nc(C5=CCN(C)CC5)cc(=O)n4c3)cc(F)c2n1 [Compound 411, 7-(8-fluoro-2-methylimidazo[1,2-a]pyridin-6-yl)-2-(1-methyl-1,2,3,6-tetrahydropyridin-4-yl)-4H-pyrido[1,2-a]pyrimidin-4-one]",218 to 222,< 0.1,–,*** (a fold increase between >1.35 and ≤1.5 is indicated by three stars (***))
"Cc1cn2cc(-c3cc(=O)n4cc(C5=CCNCC5)ncc4n3)cc2c(C)n1.Cl.Cl [Compound 413, 2-(1,3-dimethylpyrrolo[1,2-a]pyrazin-7-yl)-7-(1,2,3,6-tetrahydropyridin-4-yl)-4H-pyrazino[1,2-a]pyrimidin-4-one hydrochloride (1:2)]",> 300,< 0.1,**** (an EC1.5x≤0.3 μM is indicated by four stars (****)),**** (a fold increase between >1.5 and ≤1.65 is indicated by four stars (****))
"CCc1cc(C2=CCN(C)CC2)cn2c(=O)cc(-c3ccc(OC)c(OC)c3)nc12 [Compound 415, 2-(3,4-dimethoxyphenyl)-9-ethyl-7-(1-methyl-1,2,3,6-tetrahydropyridin-4-yl)-4H-pyrido[1,2-a]pyrimidin-4-one]",177 to 182,< 0.1,–,*** (a fold increase between >1.35 and ≤1.5 is indicated by three stars (***))
"CCc1cc(C2=CCN(CC)CC2)cn2c(=O)cc(-c3ccc(OC)c(OC)c3)nc12 [Compound 418, 2-(3,4-dimethoxyphenyl)-9-ethyl-7-(1-ethyl-1,2,3,6-tetrahydropyridin-4-yl)-4H-pyrido[1,2-a]pyrimidin-4-one]",148 to 153,< 0.1,–,*** (a fold increase between >1.35 and ≤1.5 is indicated by three stars (***))
"Cc1nc2ccc(-c3cc(=O)n4cc(C5=CCN(C)CC5)ncc4n3)cc2o1 [Compound 422, 2-(2-methyl-1,3-benzoxazol-6-yl)-7-(1-methyl-1,2,3,6-tetrahydropyridin-4-yl)-4H-pyrazino[1,2-a]pyrimidin-4-one]",240 to 242,< 0.1,** (an EC1.5× between >1 μM and ≤3 μM is indicated by two stars (**)),*** (a fold increase between >1.35 and ≤1.5 is indicated by three stars (***))
"CCN1CC=C(c2cn3c(=O)cc(-c4ccc5nc(C)oc5c4)nc3cn2)CC1 [Compound 423, 7-(1-ethyl-1,2,3,6-tetrahydropyridin-4-yl)-2-(2-methyl-1,3-benzoxazol-6-yl)-4H-pyrazino[1,2-a]pyrimidin-4-one]",225 to 227,< 0.1,*** (an EC1.5× between >0.3 μM and ≤1 μM is indicated by three stars (***)),**** (a fold increase between >1.5 and ≤1.65 is indicated by four stars (****))
